The values below come from publication PMC6928678, “Simplified Head-to-Tail Cyclic Polypeptides as Biomaterial-Associated Antimicrobials with Endotoxin Neutralizing and Anti-Inflammatory Capabilities” (International Journal of Molecular Sciences, 2019).

The test system of data set [1] is E. coli 25922. As to the kind of experiment: microbe, parasite or virus in culture. Type of data set: cell-based, Escherichia coli. Particulars: 25922, 20 h. The method, then:
(§1) The test strains, including Gram-negative E. coli ATCC25922, E. coli ATCC 1005, S. typhimurium C7731, P. aeruginosa ATCC 27853, S. Typhimurium 14028, Gram-positive S. aureus ATCC29213, S. aureus ATCC 25923, S. epidermidis ATCC 12228 and S. aureus 43300, were obtained from the School of Veterinary Medicine, Northeast Agricultural University (Harbin, China).
(§2) Briefly, the bacteria were incubated overnight at 37 °C with constant shaking at 220 rpm, then were transferred to new MH broth (MHB) medium until they reached the logarithmic phase of growth. The bacteria were then diluted to 10^5 (CFU)/mL in MHB. The peptides were dissolved and diluted in 0.01% acetic acid and 0.2% bovine serum albumin (BSA) at various concentrations (0.5–128 μM) in each well of sterile 96-well plates and incubated for 20 h at 37 °C. […] The test was repeated three times.

The test system of data set [2] is E. coli UB 1005. As to the kind of experiment: microbe, parasite or virus in culture. Format: cell-based, Escherichia coli. Particulars: UB 1005, 20 h. The method, then:
as §1, §2

Data set [3] concerns gram-positive strains tested. As to the kind of experiment: organism not typed. Type of data set: cell-based. As to conditions: 20 h. The protocol: as §2
For data set [4] the following is noted: RP-HPLC used as measure of hydrophobicity; 4.6 mm × 250 mm Venusil MP C18-5 column, 220 nm, linear acetonitrile gradient 15% to 45% in 30 min, 0.1% trifluoroacetic acid, 1 mL/min. An excerpt:
In this experiment, cyclic, linear and D-proline antimicrobial peptides were designed based on the IR-rich template sequence (IR)nP(IR)nP (n = 1, 2 and 3). […] The […] molecular weights of the peptides were identified using mass spectrometry. […] The hydrophobicity of the peptides in solution is dependably mirrored by the HPLC retention times.

In data set [5] the test system is MRSA43300. As to the kind of experiment: microbe, parasite or virus in culture. Type of data set: cell-based, Methicillin-resistant Staphylococcus aureus. Particulars: 20 h. The method, then: as §1, §2
Data set [6] relates to gram-negative strains tested. As to the kind of experiment: Geometric mean of MICs, gram-negative strains. Format: cell-based. Particulars: 5 gram-negative strains; >128 apparently counted as 256; read-out: nGM (–), geometric mean of the MICs against gram-negative strains. The method, then:
as §2

The test system of data set [7] is human red blood cells (hRBCs). The data set can be described thus: Hemolysis assay. Type of data set: cell-based. As to conditions: red cells of human, 1 h. The method, then: Figure 2 (A) Hemolytic activity of the engineered peptides against human red blood cells (hRBCs). The hRBCs were incubated with equal amounts of the respective peptides dissolved in PBS for 1 h at 37 °C. (B) Cytotoxicity of the engineered peptides against RAW264.7. […] Data shown are three independent experiments.
The hemolytic activity of the peptides is determined by measuring the amount of hemoglobin released during the lysis of human erythrocytes at different concentrations of AMPs. Briefly, fresh, healthy human red blood cells (hRBCs) were collected and then washed three times with phosphate-buffered saline (PBS) buffer (pH 7.2) and centrifuged at 1000× g for 5 min. Each 50 µL sample of hRBCs was incubated with 50 µL of the respective peptide dissolved in PBS in a well of a 96-well plate for 1 h at 37 °C. After incubation, the samples were centrifuged at 1000× g for 5 min and the supernatants (50 μL) were transferred to a new 96-well microplate. The release of hemoglobin was measured by monitoring the OD at 570 nm (Tecan, Salzburg, Austria). Negative (hRBCs without AMP treatment) and positive (hRBCs treated with 0.1% TritonX-100) controls were used. The concentration of peptide that caused 5% hemolysis was considered the minimal hemolysis concentration (MHC). The test was repeated three times. The percent hemolysis was calculated using the following formula:(2) Percent hemolysis=A−A0/At−A0× 100% A0 and At represent 0% and 100% hemolysis as measured in 10 mM PBS and 0.2% Triton X-100, respectively.

The test system of data set [8] is all the 9 bacteria tested. As to the kind of experiment: Geometric mean of MICs, all 9 bacteria. Particulars: all 9 bacteria tested. Format: cell-based. The method, then: as §2
Data set [9] relates to P. aeruginosa 27853. The data set can be described thus: microbe, parasite or virus in culture. Format: cell-based. Particulars: 27853, 20 h; read-out: MIC. The method, then: as §1, §2
For data set [10], the system named is S. typhimurium 14028. The data set can be described thus: microbe, parasite or virus in culture. Type of data set: cell-based. Particulars: 14028, 20 h. The protocol:
as §1, §2

The subject of data set [11] is S. epidermidis 12228. The data set can be described thus: microbe, parasite or virus in culture. Format: cell-based. As to conditions: 12228, 20 h. The protocol:
as §1, §2

Data set [12] deals with S. typhimurium 7731. The data set can be described thus: microbe, parasite or virus in culture. As to conditions: 7731, 20 h. Type of data set: cell-based. The protocol: as §1, §2
Data set [13] relates to Gram-positive and Gram-negative bacteria. The data set can be described thus: Antimicrobial assay (MIC), statement over all strains. Format: cell-based. Particulars: all strains tested. The method, then:
as §2

Data set [14] has as its system S. aureus 29213. The data set can be described thus: microbe, parasite or virus in culture. Format: cell-based, Staphylococcus aureus. As to conditions: 29213, 20 h. The protocol: as §1, §2
The test system of data set [15] is S. aureus 25923. The data set can be described thus: microbe, parasite or virus in culture. As to conditions: 25923, 20 h. Format: cell-based, Staphylococcus aureus. The method, then:
as §1, §2

Converted amounts (≈) assume the structure as drawn. Where a SMILES comes first, the peptide text is derived from it. [ ]: non-standard residue; d: D form. Where only a bound is given, the exact number is not on record here.

Take `CC[C@H](C)[C@@H]1NC(=O)[C@@H]2CCCN2C(=O)[C@H](CCCNC(=N)N)NC(=O)[C@H]([C@@H](C)CC)NC(=O)[C@@H]2CCCN2C(=O)[C@H](CCCNC(=N)N)NC1=O` [OIR1] (cyclo(IRPIRP)): the MIC in [1] is on record as over 128 µM; in data set [2], over 128 µM; in data set [5] it was over 128 µM; in data set [6], 256 µM (≈ 188 µg/mL); in data set [9], over 128 µM; in data set [10], over 128 µM. The MIC in [11], in data set [12], in [14] and in data set [15] was over 128 µM each time. In addition, the “pGM (+), geometric mean of the MICs against gram-positive strains” value (“pGM (+), geometric mean of the MICs” for short) in data set [3] was found to be 256 µM. Moreover, the “RT (retention time)” value in data set [4] was 10.32 min. Besides, the “MHC5, minimum hemolytic concentration that induced ≥5% hemolysis” value in data set [7] was over 128 µM. The “tGM, geometric mean of the MICs against all the 9 bacteria” value (“tGM, geometric mean of the MICs” below) in [8] is given as 256 µM. In data set [13], the “MIC in the presence of Gram-positive and Gram-negative bacteria” value is given as “greater than 128 μM”.

For the compound `CC[C@H](C)[C@H](N)C(=O)N[C@@H](CCCNC(=N)N)C(=O)N1CCC[C@@H]1C(=O)N[C@H](C(=O)N[C@@H](CCCNC(=N)N)C(=O)N1CCC[C@@H]1C(=O)O)[C@@H](C)CC` [DIR1] (H-IR[dP]IR[dP]-OH), the MIC was over 128 µM in [1]; over 128 µM in data set [2]; over 128 µM in [5]; 256 µM (≈ 192 µg/mL) in [6]; over 128 µM in data set [9]; over 128 µM in data set [10]. The MIC in data set [11], in data set [12], in data set [14] and in data set [15] was over 128 µM throughout. The “pGM (+), geometric mean of the MICs” value in data set [3] is 256 µM. Also, the “MHC5, minimum hemolytic concentration that induced ≥5% hemolysis” value in [7] was over 128 µM. Also, in [8], the “tGM, geometric mean of the MICs” value was 256 µM. In addition, the “MIC in the presence of Gram-positive and Gram-negative bacteria” value in data set [13] is “greater than 128 μM”.

Take `CC[C@H](C)[C@@H]1NC(=O)[C@H](CCCNC(=N)N)NC(=O)[C@H]([C@@H](C)CC)NC(=O)[C@@H]2CCCN2C(=O)[C@H](CCCNC(=N)N)NC(=O)[C@H]([C@@H](C)CC)NC(=O)[C@H](CCCNC(=N)N)NC(=O)[C@H]([C@@H](C)CC)NC(=O)[C@@H]2CCCN2C(=O)[C@H](CCCNC(=N)N)NC1=O` [OIR2] (cyclo(IRIRPIRIRP)): the MIC in [1] is listed as 64 µM (≈ 81.4 µg/mL); in data set [2], 64 µM (≈ 81.4 µg/mL); in [5] it was over 128 µM; in [6], 147.0 µM (≈ 187 µg/mL); in data set [9], over 128 µM; in [10] it was over 128 µM. In addition, the MIC in [11], in data set [12], in [14] and in data set [15] was over 128 µM in each case. Further, the “pGM (+), geometric mean of the MICs” value in data set [3] amounted to 256 µM. For the same compound, the “RT (retention time)” value in data set [4] amounted to 10.66 min. For the same compound, the “MHC5, minimum hemolytic concentration that induced ≥5% hemolysis” value in data set [7] is on record as over 128 µM. In data set [8], the “tGM, geometric mean of the MICs” value is on record as 188.1 µM.
